Results as given in patent US20240148701A1, “WOULD HEALING METHODS” (The University of Sydney, priority 2021, published 2024).

Assays:
CD31 = CD31 histological analysis of hind limbs post-ischemia; assay type: in vivo, mouse; conditions: both type 1 diabetes and non-diabetic mice
Procedure: Formalin fixed paraffin-embedded gastrocnemius was cut into 4 μm sections and then sections were deparaffinized. Heat retrieval was performed with Tris-EDTA buffer at pH 9. Slides were incubated overnight with a rabbit polyclonal CD31 antibody (dilution 1:200, Abcam Ltd, Australia) followed by horseradish peroxidase anti-rabbit Envision system (Dako Cytochemistry, Tokyo, Japan). Staining was developed with 3.3 diaminobenzidine tetrahydrochloride (Dako Cytochemistry, Tokyo, Japan) and counterstained with Mayer's hematoxylin stain. Rabbit IgG negative controls (Dako Cytochemistry, Tokyo, Japan) were used. A total of ten non-overlapping images for each gastrocnemius were taken with a light microscope (Leica, DM750 linked to an ICC50 E camera module). Images were taken at ×40 and analyzed with National Institute of Health Image J 1.51j8 software.

eNOS = test: Immunoblot of eNOS expression and serine 1177 phosphorylation in ischemic hind limb; assay type: in vivo, mouse; conditions: ischemic hindlimb, type 1 diabetes model
Procedure: Gastrocnemius samples were stored at −80° C. and then mechanically homogenized in ice-cold lysis buffer containing 150 mmol/L NaCl, 200 mmol/L Tris-HCl (pH 8.0), 1% Triton X-100, 0.5% deoxycholic acid, 0.1% SDS, N-ethylmaleimide (25 mM) and protease inhibitors (cOmplete™ EDTA-free, Roche Diagnostics). 30 μg of protein lysate was denatured and run under reducing conditions on SDS-PAGE (Bolt™ pre-cast gels and reagents, Thermofisher Scientific, Australia) and transferred onto Immobilon polyvinylidene fluoride membrane (Merck Millipore, Australia). Membranes were incubated in primary antibodies directed at determining protein expression of the following: Nox isoforms (anti-Nox 2, 1:5000; Abcam, Australia; anti-Nox-4, 1:5000; Abcam, Australia); reactive nitrogen species (anti-nitrotyrosine, 1:1000; Abcam, Australia); and both expression and phosphorylation of eNOS (anti Phospho eNOS serine 1177, 1:1000, Cell Signaling Technology, USA; anti-eNOS 1:1000, BD Biosciences, USA) and Akt (anti Phospho Akt 1:1000, Akt 1:1000, Cell Signaling Technology, USA). Specific secondary antibodies recognizing rabbit or mouse primary antibodies were used (IRDye®, Licor; 1:20,000, USA). Membranes were detected using an Odyssey imaging platform (Licor, USA).

[1] = system: human adult dermal microvascular endothelial cells (MVEC); test: Tubule formation in human adult dermal microvascular endothelial cells; assay type: cell-based; conditions: CL 316,243 100 ng/ml
Procedure: (§1) Human umbilical vein endothelial cells (HUVECs; Lonza C2519AS, pooled source, Australia) were grown using standard cell culture conditions in endothelial cell growth medium (EGM Plus®, containing 2% fetal bovine serum, Lonza, Australia). All cells were regularly confirmed to be mycoplasma negative. Two different pooled source cell lines were used in experiments and all were used within passages 2-4. Human adult dermal microvascular endothelial cells were also obtained from Lonza (CC-2543, Lonza Australia) and cultured as above but using endothelial growth medium 2-MV bulletkit. Endothelial colony forming cells (ECFCs) were derived from the peripheral blood of participants in the BioHEART study. This registered study (ACTRN12618001322224) complies with the Declaration of Helsinki and the study protocol and design has been approved by the Northern Sydney Local Health District Human Research Ethics Committee (HREC/17/HAWKE/343). […]
(§2) Once they were ˜70% confluent, cells were re-suspended in diluted EGM Plus® (1:3) and plated on reduced-growth factor extracellular matrix (15 mg/ml, Cultrex, Trevigen, USA) at a density of 1.5×10^4 cells/cm^2. […] Cells were incubated in an EVOS FL Auto Imaging system for 16 hours and tubule formation recorded every hour. Optimal tube formation occurred at the 8-hour timepoint; tubule number at this point was quantified manually using NIH Image J software. […]

HUVECs = test: Tubule formation in HUVECs on reduced growth factor extracellular matrix; assay type: cell-based, human; conditions: 10 and 100 ng/ml compared to the control
Procedure: as §1, §2

## C[C@H](Cc1ccc2c(c1)OC(C(=O)[O-])(C(=O)[O-])O2)NC[C@H](O)c1cccc(Cl)c1.[Na+].[Na+] [CL 316,243]
CD31
  CD31+ staining in ischemic hindlimbs (vascularization): greater CD31+ staining
eNOS
  eNOS expression: unaltered
  phosphorylation of eNOS at serine 1177: did not appear to be affected
[1]
  angiogenesis (tubule formation) in endothelial cells from adults, dermal source: stimulated angiogenesis
HUVECs
  number of tubules formed: significantly increased
